Measured values: US20230081390A1, “INHIBITORS OF RAF KINASES” (Kinnate Biopharma Inc., priority 2019, published 2023)

molecular target: human RAF1 (Homo sapiens, UniProt P04049); test: Protein kinase assay (33P-ATP filter binding), human RAF1, 10-dose IC50; assay type: biochemical; conditions: MEK1 (K97R) substrate 3 micromolar, ATP 10 micromolar, read-out: RAF-1 IC50
Summary of the method: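 Radiometric filter-binding format: 10 µM ATP, 3 µM MEK1 (K97R) as substrate for human RAF1, 2 hr at room temperature in 20 mM HEPES pH 7.5 with 10 mM MgCl2. Compounds were dispensed acoustically from DMSO. IC50 came from percent kinase activity relative to vehicle over a 10-dose series.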

Sequence of human RAF1 (P04049 whole entry): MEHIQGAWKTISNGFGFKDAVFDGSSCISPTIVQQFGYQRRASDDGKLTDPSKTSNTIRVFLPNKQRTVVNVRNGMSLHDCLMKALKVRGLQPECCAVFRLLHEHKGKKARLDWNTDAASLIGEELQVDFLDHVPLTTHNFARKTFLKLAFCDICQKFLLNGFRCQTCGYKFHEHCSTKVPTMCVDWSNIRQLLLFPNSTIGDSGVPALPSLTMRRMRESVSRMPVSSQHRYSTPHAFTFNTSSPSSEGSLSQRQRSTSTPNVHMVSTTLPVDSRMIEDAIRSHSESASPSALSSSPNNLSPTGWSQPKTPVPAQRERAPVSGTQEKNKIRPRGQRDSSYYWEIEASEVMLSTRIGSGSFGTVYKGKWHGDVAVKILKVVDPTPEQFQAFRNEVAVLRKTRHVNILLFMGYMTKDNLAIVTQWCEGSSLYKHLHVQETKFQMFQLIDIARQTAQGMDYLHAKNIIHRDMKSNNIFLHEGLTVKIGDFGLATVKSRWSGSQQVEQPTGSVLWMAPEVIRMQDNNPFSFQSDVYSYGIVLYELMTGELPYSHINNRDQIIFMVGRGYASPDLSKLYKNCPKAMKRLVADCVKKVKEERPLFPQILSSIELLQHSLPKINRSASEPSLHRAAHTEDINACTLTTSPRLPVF

| Compound | IC50 |
| --- | --- |
| Cc1cc(F)c(NC(=O)N2CCC(C(F)(F)F)C2)cc1-c1cc(OCCO)nc(N2CCOCC2)c1 (racemic) [Example 3, (RS)-N-(2-fluoro-5-(2-(2-hydroxyethoxy)-6-morpholinopyridin-4-yl)-4-methylphenyl)-3-(trifluoromethyl)pyrrolidine-1-carboxamide] | < 10 nM |
| Cc1cc(F)c(NC(=O)N2CCCC(C(F)(F)F)C2)cc1-c1cc(OCCO)nc(N2CCOCC2)c1 (racemic) [Example 4, (RS)-N-(2-fluoro-5-(2-(2-hydroxyethoxy)-6-morpholinopyridin-4-yl)-4-methylphenyl)-3-(trifluoromethyl)piperidine-1-carboxamide] | < 10 nM |
| Cc1cc(F)c(NC(=O)N2CCC(C(C)(C)C)C2)cc1-c1cc(OCCO)nc(N2CCOCC2)c1 (racemic) [Example 5, (RS)-3-(tert-butyl)-N-(2-fluoro-5-(2-(2-hydroxyethoxy)-6-morpholinopyridin-4-yl)-4-methylphenyl)pyrrolidine-1-carboxamide] | < 10 nM |
| Cc1ccc(NC(=O)N2CC[C@@H](OC(F)(F)F)C2)cc1-c1cc(O[C@H](C)CO)nc(N2CCOCC2)c1 [Example 214, (3R)-N-[3-(2-[[(2R)-1-hydroxypropan-2-yl]oxy]-6-(morpholin-4-yl)pyridin-4-yl)-4-methylphenyl]-3-(trifluoromethoxy)pyrrolidine-1-carboxamide] | < 10 nM |
| Cc1ccc(NC(=O)N2CC[C@@H](OC(F)(F)F)C2)cc1-c1cc(O[C@@H](C)CO)nc(N2CCOCC2)c1 [Example 215, (3R)-N-[3-(2-[[(2S)-1-hydroxypropan-2-yl]oxy]-6-(morpholin-4-yl)pyridin-4-yl)-4-methylphenyl]-3-(trifluoromethoxy)pyrrolidine-1-carboxamide] | < 10 nM |
| Cc1ccc(NC(=O)N2CC=C(CC(F)(F)F)C2)cc1-c1cc(OCC(C)(C)O)nc(N2CCOCC2)c1 [Example 216, N-[3-[2-(2-hydroxy-2-methylpropoxy)-6-(morpholin-4-yl)pyridin-4-yl]-4-methylphenyl]-3-(2,2,2-trifluoroethyl)-2,5-dihydropyrrole-1-carboxamide] | < 10 nM |
| Cc1ccc(NC(=O)N2CC[C@@H](CC(F)(F)F)C2)cc1-c1cc(OC2CC(C)(O)C2)nc(N2CCOCC2)c1 (stereo partly drawn) [Example 217, (3S)-N-[3-[2-(3-hydroxy-3-methylcyclobutoxy)-6-(morpholin-4-yl)pyridin-4-yl]-4-methylphenyl]-3-(2,2,2-trifluoroethyl)pyrrolidine-1-carboxamide] | < 10 nM |
| Cc1ccc(NC(=O)N2CC[C@@H](CC(F)(F)F)C2)cc1-c1cc(OCC2(O)CC2)nc(N2CCOCC2)c1 [Example 218, (3S)-N-(3-[2-[(1-hydroxycyclopropyl)methoxy]-6-(morpholin-4-yl)pyridin-4-yl]-4-methylphenyl)-3-(2,2,2-trifluoroethyl)pyrrolidine-1-carboxamide] | < 10 nM |
| Cc1ccc(NC(=O)N2CC[C@@H](CC(F)(F)F)C2)cc1-c1cc(O[C@@H]2CCC(F)(F)C2)nc(N2CCOCC2)c1 [Example 219, (3S)-N-[3-(2-[[(1R)-3,3-difluorocyclopentyl]oxy]-6-(morpholin-4-yl)pyridin-4-yl)-4-methylphenyl]-3-(2,2,2-trifluoroethyl)pyrrolidine-1-carboxamide] | < 10 nM |
| Cc1ccc(NC(=O)N2CC[C@@H](CC(F)(F)F)C2)cc1-c1cc(O[C@H]2CCC(F)(F)C2)nc(N2CCOCC2)c1 [Example 220, (3S)-N-[3-(2-[[(1S)-3,3-difluorocyclopentyl]oxy]-6-(morpholin-4-yl)pyridin-4-yl)-4-methylphenyl]-3-(2,2,2-trifluoroethyl)pyrrolidine-1-carboxamide] | < 10 nM |
| Cc1ccc(NC(=O)N2CC[C@@H](CC(F)(F)F)C2)cc1-c1cc(OCCS(C)(=N)=O)nc(N2CCOCC2)c1 (stereo partly drawn) [Example 221, (3S)-N-[3-(2-[2-[imino(methyl)oxo-λ^6-sulfanyl]ethoxy]-6-(morpholin-4-yl)pyridin-4-yl)-4-methylphenyl]-3-(2,2,2-trifluoroethyl)pyrrolidine-1-carboxamide] | < 10 nM |
| Cc1ccc(NC(=O)N2CC=C(CC(F)(F)F)C2)cc1-c1cc(OC[C@@H](C)O)nc(N2CCOCC2)c1 [Example 222, (R)-N-(3-(2-(2-hydroxypropoxy)-6-morpholinopyridin-4-yl)-4-methylphenyl)-3-(2,2,2-trifluoroethyl)-2,5-dihydro-1H-pyrrole-1-carboxamide] | < 10 nM |
| Cc1ccc(NC(=O)N2CC[C@@H](CC(F)(F)F)C2)cc1-c1cc(OC2CCC(C)(O)C2)nc(N2CCOCC2)c1 (stereo partly drawn) [Example 223, (3S)-N-(3-[2-[(3-hydroxy-3-methylcyclopentyl)oxy]-6-(morpholin-4-yl)pyridin-4-yl]-4-methylphenyl)-3-(2,2,2-trifluoroethyl)pyrrolidine-1-carboxamide] | < 10 nM |
| Cc1ccc(NC(=O)N2CC[C@@H](CC(F)(F)F)C2)cc1-c1cc(OCC2(O)COC2)nc(N2CCOCC2)c1 [Example 224, (3S)-N-(3-[2-[(3-hydroxyoxetan-3-yl)methoxy]-6-(morpholin-4-yl)pyridin-4-yl]-4-methylphenyl)-3-(2,2,2-trifluoroethyl)pyrrolidine-1-carboxamide] | < 10 nM |
| Cc1ccc(NC(=O)N2CC[C@@H](CC(F)(F)F)C2)cc1-c1cc(OCCC2(O)COC2)nc(N2CCOCC2)c1 [Example 225, (3S)-N-(3-[2-[2-(3-hydroxyoxetan-3-yl)ethoxy]-6-(morpholin-4-yl)pyridin-4-yl]-4-methylphenyl)-3-(2,2,2-trifluoroethyl)pyrrolidine-1-carboxamide] | < 10 nM |
| Cc1ccc(NC(=O)N2CC[C@@H](CC(F)(F)F)C2)cc1-c1cncc(N2CCOCC2)c1 [Example 226, (3S)-N-[4-methyl-3-[5-(morpholin-4-yl)pyridin-3-yl]phenyl]-3-(2,2,2-trifluoroethyl)pyrrolidine-1-carboxamide] | < 10 nM |
| Cc1ccc(NC(=O)N2CC[C@@H](CC(F)(F)F)C2)cc1-c1cc(OC[C@@H](C)O)nc(N2CCO[C@@H](C)C2)c1 [Example 227, (3S)-N-(3-[2-[(2R)-2-hydroxypropoxy]-6-[(2S)-2-methylmorpholin-4-yl]pyridin-4-yl]-4-methylphenyl)-3-(2,2,2-trifluoroethyl)pyrrolidine-1-carboxamide] | < 10 nM |
| Cc1ccc(NC(=O)N2CC[C@@H](CC(F)(F)F)C2)cc1-c1cc(OC[C@@H](C)O)nc(N2CCO[C@H](C)C2)c1 [Example 228, (S)-N-(3-(2-((R)-2-hydroxypropoxy)-6-((R)-2-methylmorpholino)pyridin-4-yl)-4-methylphenyl)-3-(2,2,2-trifluoroethyl)pyrrolidine-1-carboxamide] | < 10 nM |
| Cc1ccc(NC(=O)N2CC[C@@H](CC(F)(F)F)C2)cc1-c1cc(OC[C@@H](C)O)nc(N2CC3(COC3)C2)c1 [Example 229, (3S)-N-(3-[2-[(2R)-2-hydroxypropoxy]-6-[2-oxa-6-azaspiro[3.3]heptan-6-yl]pyridin-4-yl]-4-methylphenyl)-3-(2,2,2-trifluoroethyl)pyrrolidine-1-carboxamide] | < 10 nM |
| Cc1ccc(NC(=O)N2CC[C@@H](CC(F)(F)F)C2)cc1-c1cc(OC[C@@H](C)O)nc(N2CCOC3CC32)c1 (stereo partly drawn) [Example 230, (3S)-N-(3-(2-(2-oxa-5-azabicyclo[4.1.0]heptan-5-yl)-6-((R)-2-hydroxypropoxy)pyridin-4-yl)-4-methylphenyl)-3-(2,2,2-trifluoroethyl)pyrrolidine-1-carboxamide] | < 10 nM |
| Cc1ccc(NC(=O)N2CC[C@@H](CC(F)(F)F)C2)cc1-c1cc(OC2(CO)CC2)nc(N2CCOCC2)c1 [Example 231, (S)-N-(3-(2-(1-(hydroxymethyl)cyclopropoxy)-6-morpholinopyridin-4-yl)-4-methylphenyl)-3-(2,2,2-trifluoroethyl)pyrrolidine-1-carboxamide] | < 10 nM |
| Cc1ccc(NC(=O)N2CC[C@@H](CC(F)(F)F)C2)cc1-c1cc(OC(C)(C)CO)nc(N2CCOCC2)c1 [Example 232, (S)-N-(3-(2-((1-hydroxy-2-methylpropan-2-yl)oxy)-6-morpholinopyridin-4-yl)-4-methylphenyl)-3-(2,2,2-trifluoroethyl)pyrrolidine-1-carboxamide] | < 10 nM |
| Cc1ccc(NC(=O)N2CC[C@@H](CC(F)(F)F)C2)cc1-c1cc(O[C@H](C)[C@@H](C)O)nc(N2CCOCC2)c1 [Example 233, (S)-N-(3-(2-(((2R,3R)-3-hydroxybutan-2-yl)oxy)-6-morpholinopyridin-4-yl)-4-methylphenyl)-3-(2,2,2-trifluoroethyl)pyrrolidine-1-carboxamide] | < 10 nM |

molecular target: human BRAF (Homo sapiens, UniProt P15056); test: Protein kinase assay (33P-ATP filter binding), human BRAF, 10-dose IC50; assay type: biochemical; conditions: MEK1 (K97R) substrate 1 micromolar, ATP 25 micromolar, read-out: B-RAF IC50
Sequence (P15056 whole entry): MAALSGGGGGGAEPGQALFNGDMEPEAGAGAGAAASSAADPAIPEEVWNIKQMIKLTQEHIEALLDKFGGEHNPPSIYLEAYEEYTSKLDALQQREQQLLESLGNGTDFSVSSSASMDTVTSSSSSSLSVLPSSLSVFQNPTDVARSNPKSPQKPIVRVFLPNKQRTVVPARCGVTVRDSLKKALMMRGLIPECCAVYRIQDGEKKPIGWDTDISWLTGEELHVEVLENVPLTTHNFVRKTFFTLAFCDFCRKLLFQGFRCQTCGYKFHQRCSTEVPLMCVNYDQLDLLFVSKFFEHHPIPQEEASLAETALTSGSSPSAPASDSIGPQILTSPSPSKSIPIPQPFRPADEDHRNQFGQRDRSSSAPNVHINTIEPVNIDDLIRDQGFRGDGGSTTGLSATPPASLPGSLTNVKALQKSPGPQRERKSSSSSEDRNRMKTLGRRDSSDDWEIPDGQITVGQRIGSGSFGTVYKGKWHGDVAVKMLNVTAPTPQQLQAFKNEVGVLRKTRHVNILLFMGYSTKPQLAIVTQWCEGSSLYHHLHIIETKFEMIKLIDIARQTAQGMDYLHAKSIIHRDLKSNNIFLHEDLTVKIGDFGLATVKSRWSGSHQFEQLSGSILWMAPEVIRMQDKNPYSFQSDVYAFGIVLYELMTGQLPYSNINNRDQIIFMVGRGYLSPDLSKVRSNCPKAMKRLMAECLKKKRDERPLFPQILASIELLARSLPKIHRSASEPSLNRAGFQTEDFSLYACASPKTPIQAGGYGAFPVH
Method: Protein kinase assay: Assay platform was used to measure kinase/inhibitor interactions as described previously (Anastassiadis et al., 2011). In brief, for each reaction, kinase and substrate were mixed in a buffer containing 20 mM HEPES (pH 7.5), 10 mM MgCl2, 1 mM EGTA, 0.02% Brij35, 0.02 mg/mL BSA, 0.1 mM Na3VO4, 2 mM DTT, and […]. All compounds were solubilized in DMSO. Compounds were then added to each reaction mixture via acoustic dispense using an ECHO 550 nanoliter dispenser. For human RAF1 testing, human MEK1 (K97R) was used as a substrate at a concentration of 3 micromolar, with a final ATP concentration of 10 micromolar. For human BRAF testing, human MEK1 (K97R) was used as a substrate at 1 micromolar concentration, with a final ATP concentration of 25 micromolar. […] After a 20-min incubation, ATP (Sigma-Aldrich, St. Louis, Mo. 63178) and [g33P] ATP (specific activity 10 microCi/microliter) purchased at PerkinElmer (Boston, Mass., 02118 Cat #BLU 003H250UC) were added at a final total concentration of […]. Reactions were carried out at room temperature for 2 hr and spotted onto P81 ion exchange cellulose chromatography paper (Reaction Biology). Filter paper was washed in 0.75% phosphoric acid to remove unincorporated ATP. The percent remaining kinase activity relative to a vehicle-containing (DMSO) kinase reaction was calculated for each kinase/inhibitor pair. IC50 values were calculated using Prism 5 (GraphPad).

| Compound | IC50 |
| --- | --- |
| Cc1cc(F)c(NC(=O)N2CCC(C(F)(F)F)C2)cc1-c1cc(OCCO)nc(N2CCOCC2)c1 (racemic) [Example 3, (RS)-N-(2-fluoro-5-(2-(2-hydroxyethoxy)-6-morpholinopyridin-4-yl)-4-methylphenyl)-3-(trifluoromethyl)pyrrolidine-1-carboxamide] | 10 to 100 nM |
| Cc1cc(F)c(NC(=O)N2CCCC(C(F)(F)F)C2)cc1-c1cc(OCCO)nc(N2CCOCC2)c1 (racemic) [Example 4, (RS)-N-(2-fluoro-5-(2-(2-hydroxyethoxy)-6-morpholinopyridin-4-yl)-4-methylphenyl)-3-(trifluoromethyl)piperidine-1-carboxamide] | 10 to 100 nM |
| Cc1cc(F)c(NC(=O)N2CCC(C(C)(C)C)C2)cc1-c1cc(OCCO)nc(N2CCOCC2)c1 (racemic) [Example 5, (RS)-3-(tert-butyl)-N-(2-fluoro-5-(2-(2-hydroxyethoxy)-6-morpholinopyridin-4-yl)-4-methylphenyl)pyrrolidine-1-carboxamide] | 10 to 100 nM |
